Reference: paper PMC6591177, “Small Molecule IL-36γ Antagonist as a Novel Therapeutic Approach for Plaque Psoriasis” (Scientific Reports, 2019)

Key:
[1] = tested on: 3D human skin equivalents; test: IL-36γ induced 3D skin equivalent model; format: cell-based
Experimental: Hematoxylin & eosin (H&E) staining and immunohistochemistry (IHC) were performed using a Leica ST5010 autostainer or Leica Bond RX automated immunostainer. Standardized IHC protocols were used for anti-loricrin staining (Abcam AB85679). Stained tissue slides were digitized for image analysis using a Perkin Elmer P250 whole slide digital pathology slide scanner with 20X objective and extended focus scanning parameters. For quantitative analysis, N = 3 raft samples were analyzed per condition for each stain using whole slide digital analysis software (Indica Labs HALO). Staining was normalized to the length of the raft sample analyzed.
3D skin equivalents (SOR-300-FT-CTR) comprised of human neonatal keratinocytes and fibroblasts were purchased from MatTek, equilibrated for one day in proprietary formulated media (SOR-300-FT-CTR-MM) and then treated as indicated. Treatment groups contained hIL-36γ at 300 ng/mL, 10 μM of A-552, 10 μg/mL anti-IL36R antibody, 10 μg/mL IL-36RA, or 10 μg/mL IgG isotype control either alone or in combination with hIL-36γ. Control skin equivalents were treated with media only. Skin equivalents were treated for three days, with media collected for cytokine release studies at day two and replaced with fresh treatment media. After three days the skin equivalents were either placed in 10% neutral buffered formalin solution (for histology) or frozen (for qRT-PCR).
To measure IL-6, IL-8 and CXCL1 release from 3D skin equivalents diluted sample media collected at day 2 of the treatment (see above) was used in conjunction with V-PLEX multiplex immunoassay for IL-6 and IL-8 and a U-PLEX immunoassay for CXCL1 (Meso Scale Discovery) according to the manufacturers’ protocols.
RNA from frozen 3D skin equivalents was isolated using miRNeasy Mini Kit (Qiagen) per the manufacturers’ instructions. For qRT-PCR determination a CFX384 Real-Time System C1000 Touch Thermocycler was used. […] Each transcript measured was presented as a fold change compared to control using the ∆∆CT method as RNA fold increase where RPLP0 was used as a housekeeping gene.

mouse IL-36α = target: T1, mouse IL-36α (Mus musculus, UniProt Q9JLA2); test: Cross-reactivity to mouse IL-36α; format: binding
T1 sequence (Q9JLA2 8-160): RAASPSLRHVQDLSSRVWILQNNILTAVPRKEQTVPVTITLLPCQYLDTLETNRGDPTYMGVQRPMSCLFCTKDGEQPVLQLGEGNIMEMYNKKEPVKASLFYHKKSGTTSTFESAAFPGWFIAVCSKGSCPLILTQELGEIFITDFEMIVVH

human IL-36β = target: T2, human IL-36β (Homo sapiens, UniProt Q9NZH7); test: Affinity for human IL-36β; format: binding
T2 sequence (Q9NZH7 5-164): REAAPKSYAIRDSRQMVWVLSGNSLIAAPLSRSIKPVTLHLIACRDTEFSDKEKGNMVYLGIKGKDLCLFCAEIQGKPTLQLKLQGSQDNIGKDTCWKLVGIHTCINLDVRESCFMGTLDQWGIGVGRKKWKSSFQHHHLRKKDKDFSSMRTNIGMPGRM

[2] = Drug plasma levels / oral exposure in mice; conditions: mouse, in vivo
human IL-36γ = target: T3, human IL-36γ (Homo sapiens, UniProt Q9NZH8); test: Isothermal titration calorimetry; format: binding; conditions: 25 °C, pH 7.5; read-out: KD (ITC)
T3 construct: His6-SUMO-human IL-36γ (18–169); His6-SUMO (N, cleaved yes); made in house; host or cells: E. coli BL21 (DE3)
T3 sequence (Q9NZH8 18-169): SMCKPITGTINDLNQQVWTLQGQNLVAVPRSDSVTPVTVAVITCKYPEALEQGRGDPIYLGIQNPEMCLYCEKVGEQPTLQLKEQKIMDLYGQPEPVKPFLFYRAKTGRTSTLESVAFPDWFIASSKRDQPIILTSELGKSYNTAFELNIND
Experimental: All experiments were carried out on a MicroCal^TM Auto-ITC200 at 25 °C in 50 mM HEPES (pH = 7.5), 150 mM NaCl, 0.5 mM TCEP, 2% DMSO. IL-36γ protein solution was buffer exchanged by gel filtration into the isothermal titration calorimetry (ITC) buffer and diluted to 40 µM. The titrations were conducted using an initial injection of 0.2 µL followed by 19 identical injections of 2 µL of 400 µM compound solution. Thermodynamic parameters were calculated using ∆G = ∆H − T∆S = −RTlnKB, where ∆G, ∆H and ∆S are the changes in free energy, enthalpy and entropy of binding respectively. A single binding site model was employed.

[3] = tested on: human IL-36γ induced plasma CXCL1; test: hIL-36γ induced CXCL1 release in mouse plasma; format: in vivo; conditions: C57BL/6 mice, compounds 10, 30 and 100 mg/kg p.o.; antibody i.p.
Text: Female C57BL/6 mice (9–10 weeks old, 19–23 g) were purchased from Charles River Laboratories. All animal procedures were approved by AbbVie’s Institutional Animal Care and Use Committee (IACUC) and performed in accordance with the relevant IACUC guidelines and regulations. To examine engagement of human IL-36γ with antagonists under in vivo conditions, a mouse acute CXCL1 release assay was established which was similar to one previously reported. Plasma CXCL1 secretion was induced by subcutaneous injection of 2 μg human IL-36γ (in 100 μL PBS) into C57BL/6 mice. Blood was withdrawn via cardiac puncture 2 h after the challenge with IL-36γ. A-552 and A-553 were dosed at 10, 30 and 100 mg/kg p.o. 45 min before IL-36γ challenge. Anti-IL36R antibodies were dosed i.p. at 24 hours before IL-36γ challenge. Plasma CXCL1 levels were analyzed using MSD V-PLEX kit.

mouse IL-36γ = target: T4, mouse IL-36γ (Mus musculus, UniProt Q8R460); test: Affinity for mouse IL-36γ; format: binding
T4 sequence (Q8R460 13-164): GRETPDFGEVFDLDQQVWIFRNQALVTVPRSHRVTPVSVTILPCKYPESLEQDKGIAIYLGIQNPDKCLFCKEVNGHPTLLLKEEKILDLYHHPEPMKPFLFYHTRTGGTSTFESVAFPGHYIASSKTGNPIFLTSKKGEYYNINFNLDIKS

cross-reactivity to mouse IL-36α (mouse IL-36α): lack of species cross-reactivity
affinity for human IL-36β (human IL-36β): does not show affinity
oral bioavailability [2]: orally bioavailable
Kd (human IL-36γ): 67.6 ± 6 nM
affinity for mouse IL-36γ (mouse IL-36γ): does not show affinity
SMILES: COC(c1ccccc1)(c1ccccc1)[C@H](Oc1nc(C)cc(-c2ccc(C)c(N)c2)n1)C(=O)O [Compound A-552]
effect on hIL-36γ induced changes in morphology, gene expression and cytokine production ([1]; 0.3 μg/mL hIL-36γ, 10 μM A-552, 10 μg/mL antibody or IL-36Ra, three days): attenuated
effect on 3D human skin equivalents when treated alone ([1]; without hIL-36γ): no appreciable effect
effect on hIL-36γ induced plasma CXCL1 release (in words) [3]: robustly attenuated CXCL1 levels in plasma in a dose-dependent manner
